Legend:
barnyardgrass = assay: Test A postemergence; format: in vivo, Echinochloa crus-galli
Procedure, shortened: (§1)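 Pre- and postemergence greenhouse screen. Soil: loam + sand. Spray carrier: solvent mixture, non-phytotoxic, with surfactant. Post timing at 1–2 leaves, height 2–10 cm. Readout: visual injury on a 0–100 scale roughly 10 days after application, untreated plants as reference.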

wheat = assay: Test A postemergence; format: in vivo, Triticum aestivum
Procedure, shortened: as §1

Heteranthera limosa = assay: Test B flooded paddy test; format: in vivo; settings: Flood, 250 g ai/ha; 0 to 100 scale where 0 is no effect and 100 is complete control
Procedure, shortened: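 Scores from 0 (no effect) to 100 (complete control) are visual comparisons with controls, taken 13 to 15 days after compound was applied into floodwater 3 cm deep around 2-leaf plants.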

blackgrass = assay: Test C preemergence; format: in vivo, Alopecurus myosuroides; settings: for Blackgrass plant response rating: preemergence; for Plant response rating, Blackgrass: Preemergence, scale 0 to 100, 0 no effect, 100 complete control
Procedure, shortened: (§2)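 Injury was assessed visually against controls 13 to 15 days after application, with 0 meaning no effect and 100 full control; missing entries are shown as a dash. Preemergence sprays hit seeded loam–sand soil, postemergence sprays hit 1- to 4-leaf plants.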

Italian ryegrass = assay: Test C preemergence; format: in vivo, Lolium multiflorum; settings: for Ryegrass, Italian plant response rating: preemergence; for Plant response rating, Ryegrass, Italian: Preemergence, scale 0 to 100, 0 no effect, 100 complete control
Procedure, shortened: as §2

wheat, winter = assay: Test C preemergence; format: in vivo, Triticum aestivum; settings: for Wheat plant response rating: preemergence; for Plant response rating, Wheat: Preemergence, scale 0 to 100, 0 no effect, 100 complete control
Procedure, shortened: as §2

galium = assay: Test C preemergence; format: in vivo, Galium aparine; settings: for Galium plant response rating: preemergence; for Plant response rating, Galium: Preemergence, scale 0 to 100, 0 no effect, 100 complete control
Procedure, shortened: as §2

morningglory = assay: Test C preemergence; format: in vivo, Ipomoea coccinea; settings: for Morningglory plant response rating: preemergence; for Plant response rating, Morningglory: Preemergence, scale 0 to 100, 0 no effect, 100 complete control
Procedure, shortened: as §2

waterhemp = assay: Test C preemergence; format: in vivo, Amaranthus rudis; settings: for Waterhemp plant response rating: preemergence; for Plant response rating, Waterhemp: Preemergence, scale 0 to 100, 0 no effect, 100 complete control
Source text: Seeds of plant species selected from blackgrass (Alopecurus myosuroides), Italian ryegrass (Lolium multiflorum), wheat, winter (winter wheat, Triticum aestivum), galium (catchweed bedstraw, Galium aparine), corn (Zea mays), large (Lg) crabgrass (Digitaria sanguinalis), giant foxtail (Setaria faberii), johnsongrass (Sorghum halepense), lambsquarters (Chenopodium album), morningglory (Ipomoea coccinea), yellow nutsedge (Cyperus esculentus), pigweed (Amaranthus retroflexus), ragweed (common ragweed, Ambrosia elatior), soybean (Glycine max), barnyardgrass (Echinochloa crus-galli), oilseed rape (Brassica napus), waterhemp (common waterhemp, Amaranthus rudis), kochia (Kochia scoparia), wild oat (Avena fatua), surinam grass (Brachiaria decumbens), foxtail, green (green foxtail, Setaria viridis), goosegrass (Eleusine indica), bromegrass, downy (downy bromegrass, Bromus tectorum), nightshade (eastern black nightshade, Solanum ptycanthum), cocklebur (common cocklebur, Xanthium strumarium), cupgrass, woolly (woolly cupgrass, Eriochloa villosa), bermudagrass (Cynodon dactylon), sunflower, (common oilseed sunflower, Helianthus annuus), Russian thistle (Salsola kali), and velvetleaf (Abutilon theophrasti) were planted into a blend of loam soil and sand and treated preemergence with test chemicals formulated in a non-phytotoxic solvent mixture which included a surfactant.
At the same time, plants selected from these crop and weed species and also barley, winter (winter barley, Hordeum vulgare), windgrass (Apera spica-venti), chickweed (common chickweed, Stellaria media), deadnettle (henbit deadnettle, Lamium amplexicaule), and canarygrass (littleseed canarygrass, Phalaris minor) were planted in pots containing Redi-Earth® planting medium (Scotts Company, 14111 Scottslawn Road, Marysville, Ohio 43041) comprising spaghnum peat moss, vermiculite, wetting agent and starter nutrients and treated with postemergence applications of test chemicals formulated in the same manner. Plants ranged in height from 2 to 18 cm (1- to 4-leaf stage) for postemergence treatments. Treated plants and controls were maintained in a greenhouse for 13 to 15 days, after which time all species were compared to controls and visually evaluated. Plant response ratings, summarized in Table C, are based on a scale of 0 to 100 where 0 is no effect and 100 is complete control. A dash (-) response means no test result.

[1] = 31 g ai/ha, 0 to 100 scale, 0 no effect, 100 complete control
[2] = 125 g ai/ha, 0 to 100 scale where 0 is no effect and 100 is complete control
[3] = 16 g ai/ha, scale 0 to 100 (0 no effect, 100 complete control)
[4] = 62 g ai/ha, scale 0 (no effect) to 100 (complete control)
[5] = 125 g ai/ha, scale 0 (no effect) to 100 (complete control)
[6] = 500 g ai/ha, 0 to 100 scale where 0 is no effect and 100 is complete control
[7] = 125 g ai/ha, 0 to 100 scale, 0 no effect, 100 complete control

Row | SMILES | Plant response rating, Barnyardgrass (barnyardgrass; [1]) | Plant response rating, Wheat (wheat; [1]) | Plant response rating, Ducksalad (Heteranthera limosa) | Blackgrass plant response rating (blackgrass; [3]) | Blackgrass plant response rating (blackgrass; [4]) | Blackgrass plant response rating (blackgrass; [5]) | Plant response rating, Blackgrass (blackgrass; 31 g ai/ha) | Ryegrass, Italian plant response rating (Italian ryegrass; [3]) | Ryegrass, Italian plant response rating (Italian ryegrass; [4]) | Ryegrass, Italian plant response rating (Italian ryegrass; [5]) | Wheat plant response rating (wheat, winter; [3]) | Wheat plant response rating (wheat, winter; [4]) | Wheat plant response rating (wheat, winter; [5]) | Galium plant response rating (galium; [3]) | Galium plant response rating (galium; [5]) | Morningglory plant response rating (morningglory; [3]) | Morningglory plant response rating (morningglory; [4]) | Morningglory plant response rating (morningglory; [5]) | Waterhemp plant response rating (waterhemp; [3]) | Waterhemp plant response rating (waterhemp; [5]) | other results
1 | FCc1cccc(Oc2ncc(F)cn2)c1-n1cc(C(F)(F)F)cn1 [Compound 118] | 30 | 20 | 90 | 35 | 90 | 95 | 80 | 0 | 70 | 100 | 0 | 10 | 90 | 95 | 100 | 40 | 100 | 100 | 85 | 100 | Plant response rating, Barnyardgrass (barnyardgrass; [2]): 80; Plant response rating, Ryegrass, Italian (Italian ryegrass; 31 g ai/ha): 40; Plant response rating, Wheat (wheat, winter; 31 g ai/ha): 0; Galium plant response rating (galium; [4]): 100; Plant response rating, Galium (galium; 31 g ai/ha): 95; Plant response rating, Morningglory (morningglory; 31 g ai/ha): 75; Waterhemp plant response rating (waterhemp; [4]): 100; Plant response rating, Waterhemp (waterhemp; 31 g ai/ha): 100
2 | COc1cnn(-c2c(C#N)cccc2Oc2ncc(Cl)cn2)c1 [Compound 137] | – | – | 30 | 0 | 5 | 10 | 0 | 0 | 0 | 0 | 0 | 0 | 0 | 5 | 95 | 25 | 45 | 90 | 100 | 100 | Barnyardgrass plant response rating (barnyardgrass; [2]): 0; Plant response rating, Barnyardgrass (barnyardgrass; [6]): 100; Wheat plant response rating (wheat; [2]): 30; Plant response rating, Wheat (wheat; [6]): 70; Galium plant response rating (galium; [4]): 10; Plant response rating, Galium (galium; 31 g ai/ha): 5; Waterhemp plant response rating (waterhemp; [4]): 95
3 | N#Cc1cnn(-c2c(CF)cccc2Oc2ncc(F)cn2)c1 [Compound 151] | 0 | 20 | 70 | 0 | 10 | 90 | 0 | 0 | 35 | 45 | 0 | 0 | 40 | – | – | 0 | 10 | 25 | 95 | 100 | Barnyardgrass plant response rating (barnyardgrass; [2]): 60; Wheat plant response rating (wheat; [2]): 30; Waterhemp plant response rating (waterhemp; [4]): 100
4 | FCc1cccc(Oc2ncc(Cl)cn2)c1-n1cc(Cl)cn1 [Compound 250] | 10 | 0 | 70 | 0 | – | 90 | – | 0 | – | 15 | 0 | – | 0 | 0 | 98 | 0 | – | 50 | 85 | 100 | Plant response rating, Barnyardgrass (barnyardgrass; [7]): 60; Plant response rating, Wheat (wheat; [7]): 0; Plant response rating, Blackgrass (blackgrass; 62 g ai/ha): 70; Plant response rating, Ryegrass, Italian (Italian ryegrass; 62 g ai/ha): 5; Plant response rating, Wheat (wheat, winter; 62 g ai/ha): 0; Plant response rating, Galium (galium; 62 g ai/ha): 70; Plant response rating, Morningglory (morningglory; 62 g ai/ha): 50; Plant response rating, Waterhemp (waterhemp; 62 g ai/ha): 100
